In PubChem BioAssay (NCI):
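Exposure lasted 48 hours, with cells grown in 96-well plates and compounds tested at five concentrations. GI50: concentration for 50% inhibition of growth. Definition used: TGI = concentration required for complete inhibition of growth.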

How the values were obtained:
Assay in all cases: inhibition of tumour cell growth, NCI panel, 48 h
ACHN renal = tested on: ACHN renal
CAKI-1 renal = tested on: CAKI-1 renal
IGROV1 ovarian = tested on: IGROV1 ovarian
RPMI-8226 leukemia = tested on: RPMI-8226 leukemia
RXF 393 renal = tested on: RXF 393 renal
SF-295 CNS = tested on: SF-295 CNS
SK-MEL-5 melanoma = tested on: SK-MEL-5 melanoma
UACC-257 melanoma = tested on: UACC-257 melanoma
SNB-75 CNS = tested on: SNB-75 CNS
SR leukemia = tested on: SR leukemia

## Clc1ccc(C(n2cc(Br)cn2)n2cc(Br)cn2)cc1
ACHN renal
  TGI: 27.6 µM
CAKI-1 renal
  TGI: 23.4 µM
IGROV1 ovarian
  TGI: 41.3 µM
RPMI-8226 leukemia
  TGI: 60.2 µM
RXF 393 renal
  TGI: 32.5 µM
SF-295 CNS
  TGI: 29.8 µM
SK-MEL-5 melanoma
  TGI: 27.2 µM
UACC-257 melanoma
  TGI: 29.3 µM

## NC(N)=NS(=O)(=O)c1ccc(NCCc2c3ccccc3nc3ccccc23)cc1
ACHN renal
  TGI: > 100 µM
CAKI-1 renal
  TGI: > 100 µM
IGROV1 ovarian
  TGI: > 100 µM
RPMI-8226 leukemia
  TGI: > 100 µM
RXF 393 renal
  TGI: > 100 µM
SF-295 CNS
  TGI: > 100 µM
SNB-75 CNS
  TGI: > 100 µM
SR leukemia
  TGI: > 100 µM
UACC-257 melanoma
  TGI: > 100 µM

## O=C1C[C@@H]2/C(=C(O)\C=C\c3ccccc3)C(=O)C=C[C@@H]2O1
ACHN renal
  GI50: 1.56 µM
  TGI: 3.29 µM
CAKI-1 renal
  GI50: 2.35 µM
  TGI: 11.8 µM
IGROV1 ovarian
  GI50: 0.385 µM
  TGI: 1.56 µM
RXF 393 renal
  GI50: 1.47 µM
  TGI: 2.83 µM
SF-295 CNS
  GI50: 3.44 µM
  TGI: 13.7 µM
SK-MEL-5 melanoma
  GI50: 2.01 µM
  TGI: 4.82 µM
SNB-75 CNS
  GI50: 2.07 µM
  TGI: 5.78 µM
SR leukemia
  GI50: 0.464 µM
  TGI: 17 µM
UACC-257 melanoma
  GI50: 1.83 µM
  TGI: 3.9 µM

## COc1cc(C2CC(c3ccc(Nc4ccnc5cc(Cl)ccc45)cc3)=NN2c2ccc(Cl)cc2)cc(OC)c1OC (configuration not stated)
ACHN renal
  GI50: 1.85 µM
  TGI: > 100 µM
CAKI-1 renal
  GI50: 2.12 µM
  TGI: > 100 µM
IGROV1 ovarian
  GI50: 4.81 µM
  TGI: > 100 µM
RXF 393 renal
  GI50: 1.34 µM
  TGI: 8.05 µM
SF-295 CNS
  GI50: 2.02 µM
  TGI: 8.32 µM
SK-MEL-5 melanoma
  GI50: 2.68 µM
  TGI: 15.6 µM
SNB-75 CNS
  GI50: 1.11 µM
  TGI: 6.68 µM
SR leukemia
  GI50: 1.2 µM
  TGI: 56.3 µM
UACC-257 melanoma
  GI50: 2.72 µM
  TGI: 36.4 µM

## COC(=O)/C=C/c1cc2c(cc1-c1c(C(=O)O)cc(OC)c(OC)c1OC)OCO2
ACHN renal
  TGI: > 10 µM
CAKI-1 renal
  TGI: > 10 µM
IGROV1 ovarian
  TGI: > 10 µM
RPMI-8226 leukemia
  TGI: > 10 µM
SF-295 CNS
  TGI: > 10 µM
SK-MEL-5 melanoma
  TGI: > 10 µM
SNB-75 CNS
  TGI: > 10 µM
SR leukemia
  TGI: > 10 µM
UACC-257 melanoma
  TGI: > 10 µM

## COC(=O)c1c2cccccc-2c(Cc2c3cccccc-3c(C(=O)OC)c2O)c1O
ACHN renal
  TGI: > 100 µM
CAKI-1 renal
  TGI: > 100 µM
IGROV1 ovarian
  TGI: > 100 µM
RPMI-8226 leukemia
  TGI: > 100 µM
SF-295 CNS
  TGI: > 100 µM
SK-MEL-5 melanoma
  TGI: > 100 µM
SNB-75 CNS
  TGI: > 100 µM
SR leukemia
  TGI: > 100 µM
UACC-257 melanoma
  TGI: > 100 µM

## C[N+]1=C(/C=C\C=C\c2ccccc2)C(C)(C)c2ccccc21
ACHN renal
  GI50: 5.84 µM
  TGI: 18.7 µM
CAKI-1 renal
  GI50: 3.82 µM
  TGI: 13.5 µM
IGROV1 ovarian
  GI50: 2.06 µM
  TGI: 8.2 µM
RPMI-8226 leukemia
  GI50: 1.22 µM
  TGI: 6.53 µM
RXF 393 renal
  GI50: 1.75 µM
  TGI: 3.62 µM
SF-295 CNS
  GI50: 10.8 µM
  TGI: 24.6 µM
SNB-75 CNS
  GI50: 3.73 µM
  TGI: 16.2 µM
SR leukemia
  GI50: 0.925 µM
  TGI: 4.31 µM
UACC-257 melanoma
  GI50: 1.69 µM
  TGI: 4.52 µM

## C#CCOc1cccc(Nc2ncnc3cc(NC(=O)CCl)ccc23)c1
ACHN renal
  GI50: 4.9 µM
  TGI: 18 µM
CAKI-1 renal
  GI50: 3.51 µM
  TGI: 15 µM
IGROV1 ovarian
  GI50: 2.78 µM
  TGI: 11.9 µM
RPMI-8226 leukemia
  GI50: 3.44 µM
  TGI: 10.4 µM
RXF 393 renal
  GI50: 13.2 µM
  TGI: 27.7 µM
SF-295 CNS
  GI50: 3.52 µM
  TGI: 15.2 µM
SK-MEL-5 melanoma
  GI50: 6.31 µM
  TGI: 19.4 µM
SR leukemia
  GI50: 0.49 µM
  TGI: 5.59 µM
UACC-257 melanoma
  GI50: 15.4 µM
  TGI: 32.3 µM
